Experiments:
Type in all cases: cell-based, human
HeLa cells [1] = experiment: AO/EB staining; settings: 10 μM, 12 and 24 h
Procedure: The cytotoxicity of compound 9n at a concentration of 10 μM against HeLa cells from 12 to 24 h was detected by AO/EB staining, and Hela cells not treated with the 9n were used as control for 48 h. […] Also due to the AO uptake, control cells appeared green while 9n treated cells appeared green to intense green as apoptotic cells had much more permeable membranes.
Cells were seeded at a concentration of 5 × 10^4 cell/ mL in a volume of 2 mL on a sterile cover slip in six-well tissue culture plates. Following incubation, the medium was removed and replaced with fresh medium plus 10% fetal bovine serum and supplemented with compound 9n (15 μM). After the treatment period, the cover slip with monolayer cells was inverted on a glass slide with 20 μL of AO/EB stain (100 mg/mL). Fluorescence was read on a slide with 20 μL of AO/EB stain (100 mg/mL) using a Nikon ECLIPSETE2000-S fluorescence microscope ([…], Tokyo, Japan).

HeLa cells [2] = experiment: JC-1 mitochondrial membrane potential staining; settings: 10 μM, 12 and 24 h
From the text: Apoptosis plays an important role in cancer, since its induction in tumor cells is essential for successful treatment. Mitochondria play key roles in apoptosis through the release of pro-apoptotic factors such as cytochrome c and apoptosis-inducing factor [19, 20]. In order to further investigate the apoptosis-inducing effect of target compound 9n, mitochondrial membrane potential changes were designed and detected, using the fluorescent probe JC-1. […] In the control cells, JC-1 could aggregate in mitochondria and present high red fluorescence. However, in cells undergoing apoptosis, where the mitochondrial potential has collapsed, JC-1 exists in the cytosol as a monomer that emits green fluorescence. HeLa cells treated with compound 9n at 10 μM from 12 to 24 h were stained with JC-1 and cells not treated with the compound 9n were used as control for 24 h. […]
General procedure for mitochondrial membrane potential staining: JC-1 probe was employed to measure mitochondrial depolarization in […]. […] Mitochondrial membrane potentials were monitored by determining the relative amounts of dual emissions from mitochondrial JC-1 monomers or aggregates using an Nikon ECLIPSETE2000-S fluorescent microscope. Mitochondrial depolarization is indicated by an increase in the green/red fluorescence intensity ratio.

HeLa cells [3] = experiment: Annexin V/PI apoptosis flow cytometry; settings: 12 h, control 1.521%
Procedure: Annexin V/PI staining was performed to distinguish apoptotic and necrotic cell deaths. The apoptosis ratios induced by compound 9n in HeLa cells were quantitatively determined by flow cytometry (Figure 5). […] Apoptosis ratios (including the early and late apoptosis ratios) for compound 9n were obtained after 12 h of treatment at the concentration of 10 and 15 μM. The apoptosis of HeLa cells treated with target compound 9n increased gradually in a concentration manner. […] The results illustrated that target compound 9n suppressed cell proliferation by inducing apoptosis.
General procedure apoptosis ratios: Prepared HeLa cells (1 × 10^6 cells/mL) were washed twice with cold PBS and then re-suspended gently in 500 μL of binding buffer. Thereafter, cells were stained in 5 μL of Annexin V-FITC and shaken well. Finally, the cells were mixed with 5 μL of PI, incubated for 20 min in the dark and subsequently analyzed using FACSCalibur (Becton Dickinson, Franklin Lakes, NJ, USA).

HeLa cells [4] = experiment: Intracellular Ca2+ release (Fluo-3/AM); settings: 10 μM, 24 h
From the text: Mitochondria have also been implicated as a source of ROS during apoptosis. […] We herein studied whether the loss of mitochondrial transmembrane potential resulting in the generation of ROS measured as described in our previous papers , using the fluorescent probe 2,7-dichlorofluorescein diacetate (DCF-DA) determined by fluorescence microscopy. […] Calcium has long been recognized as a significant participant in cell apoptosis. Therefore, we investigated whether compound 9n inducing cell death was involved in the production of Ca^2+. To investigate the effect of compound 9n on calcium release, HeLa cells treated with compound 9n at 10 μM for 24 h were loaded with the Ca^2+ indicator Fluo-3-acetoxymethyl-ester (Fluo-3/AM, 5 µM; Beyotime, Jiangsu, China).

Structure (SMILES): CC(C)c1ccc2c(c1)CCC1[C@](C)(C(=O)NC(=S)N[C@H](Cc3ccccc3)C(=O)Nc3ccccn3)CCC[C@]21C (stereo partly drawn) [Compound 9n, (1R,4aS)-7-Isopropyl-1,4a-dimethyl-N-(((R)-1-oxo-3-phenyl-1-(pyridin-2-ylamino)propan-2-yl)carbamothioyl)-1,2,3,4,4a,9,10,10a-octahydrophenanthrene-1-carboxamide]
- apoptosis by AO/EB staining (HeLa cells [1]): obvious apoptotic characters
- mitochondrial membrane potential change (JC-1) (HeLa cells [2]): strong green fluorescence
- apoptosis ratio (early and late) (HeLa cells [3]; 10 μM): 21.11%
- apoptosis ratio (early and late) (HeLa cells [3]; 15 μM): 42.75%
- intracellular Ca2+ release (HeLa cells [4]): stronger green fluorescence

Reference: PMC4519859, “Synthesis and Biological Evaluation of Novel Dehydroabietic Acid Derivatives Conjugated with Acyl-Thiourea Peptide Moiety as Antitumor Agents” (International Journal of Molecular Sciences, 2015)
